In article PMC6102311 (Scientific Reports, 2018):

Key:
Staphylococcus aureus = tested on: Staphylococcus aureus; set-up: method as in PMID 26927047; settings: extracted from Chinese agarwood; cited from earlier work
[1] = tested on: Epstein-Barr virus-early antigen (EBV-EA) activation in Raji cells by TPA; assay: Inhibitory effects on induction of EBV-EA activation by TPA in Raji cells; assay type: cell-based
From the text: (§1) We finally carried out in vitro functional analysis of the purified valerianol against tumor promoter activity, since there were no reports on its physiological functions. As such a screening study for anti-tumor promoters, valerianol and other several sesquiterpenes, β-eudesmol, elemol, α-selinene, and γ-amorphene, were examined for their inhibitory effects on induction of Epstein-Barr virus-early antigen (EBV-EA) activation in Raji cells by 12-O-tetradecanoylphorbol-13-acetate (TPA)[42].
(§2) This assay was carried out by the method described.

[2] = Viability of Raji cells in the EBV-EA activation assay; assay type: cell-based; settings: human, Raji cells; concentration 1000 mol ratio to TPA (32 pmol/ml); value in parentheses; read-out: viability percentage of Raji cells
From the text: as §1, §2

Ralstonia solanacearum = settings: extracted from Chinese agarwood; cited from earlier work
Raji cells = assay: Viability of Raji cells in the EBV-EA activation assay; assay type: cell-based; settings: concentration 1000 mol ratio to TPA (32 pmol/ml); value in parentheses
From the text: as §1, §2

[3] = concentration 10 mol ratio to TPA (32 pmol/ml)
[4] = concentration 100 mol ratio to TPA (32 pmol/ml)
[5] = concentration 500 mol ratio to TPA (32 pmol/ml)
[6] = concentration 1000 mol ratio to TPA (32 pmol/ml)

## C[C@@H]1CCC=C2CC[C@@H](C(C)(C)O)C[C@]21C (relative stereo) [valerianol]
Staphylococcus aureus
  antibacterial activity against Staphylococcus aureus (in words): exhibited antibacterial activities
[1]
  inhibitory activity on induction of EBV-EA activation by TPA (in words): strongest inhibitory activity among the examined sesquiterpenes
[1]; [3]
  EBV-EA activation, percentage relative to the positive control value (100%): 95.6 ± 0.6%
[1]; [4]
  EBV-EA activation, percentage relative to the positive control value (100%): 70.0 ± 2.5%
[1]; [5]
  EBV-EA activation, percentage relative to the positive control value (100%): 46.5 ± 1.5%
[1]; [6]
  EBV-EA activation, percentage relative to the positive control value (100%): 2.1%
[2]
  viability at 32 nmol/ml: 60%
Ralstonia solanacearum
  antibacterial activity against Ralstonia solanacearum (in words): exhibited antibacterial activities

## C=CC1(C)CCC(C(C)(C)O)CC1C(=C)C (stereo not drawn) [elemol]
[1]; [3]
  EBV-EA activation, percentage relative to the positive control value (100%): 100 ± 0.5%
[1]; [4]
  EBV-EA activation, percentage relative to the positive control value (100%): 73.0 ± 2.4%
[1]; [5]
  EBV-EA activation, percentage relative to the positive control value (100%): 52.6 ± 1.3%
[1]; [6]
  EBV-EA activation, percentage relative to the positive control value (100%): 5.8%
[2]
  viability at 32 nmol/ml: 70%

## C=C(C)[C@@H]1CC[C@@]2(C)CCC=C(C)[C@@H]2C1 [α-selinene]
[1]; [4]
  EBV-EA activation, percentage relative to the positive control value (100%): 74.4 ± 2.7%
[1]; [5]
  EBV-EA activation, percentage relative to the positive control value (100%): 54.2 ± 1.5%
[1]; [6]
  EBV-EA activation, percentage relative to the positive control value (100%): 7.3%
Raji cells
  viability percentage of Raji cells: 60%

## C=C1CCC[C@]2(C)CC[C@@H](C(C)(C)O)C[C@@H]12 [β-eudesmol]
[1]; [3]
  EBV-EA activation, percentage relative to the positive control value (100%): 97.0 ± 0.5%
[1]; [4]
  EBV-EA activation, percentage relative to the positive control value (100%): 71.1 ± 2.2%
[1]; [5]
  EBV-EA activation, percentage relative to the positive control value (100%): 50.4 ± 1.6%
[1]; [6]
  EBV-EA activation, percentage relative to the positive control value (100%): 3.6%
[2]
  viability at 32 nmol/ml: 60%

## C=C1CC[C@@H](C(C)C)[C@H]2C=C(C)CC[C@@H]12 [γ-amorphene]
[1]; [3]
  EBV-EA activation, percentage relative to the positive control value (100%): 100 ± 0.4%
[1]; [4]
  EBV-EA activation, percentage relative to the positive control value (100%): 76.1 ± 2.5%
[1]; [5]
  EBV-EA activation, percentage relative to the positive control value (100%): 55.6 ± 1.7%
[1]; [6]
  EBV-EA activation, percentage relative to the positive control value (100%): 8.1%
Raji cells
  viability percentage of Raji cells: 60%
